Experiment [1] relates to OCI-AML3 cells. The experiment in a line: qPCR expression of ATRA-induced genes CYBB and ITGAM. As to conditions: ATRA 1 μM, H1d KD versus no doxycycline induction. Type of experiment: cell-based. The protocol:
(§1) (A) OCI-AML cells were stably infected by a doxycycline inducible shCtrl or shH1d. Expression of the main histone H1 genes (HIST1H1B, HIST1H1C, HIST1H1D, HIST1H1E, HIST1H1F0 and HIST1HIFx) were analyzed by qPCR in shCtrl and sh #1 without (Dox−) or with 6-days-induction of doxycycline (Dox+). Data represent three independent Dox inductions. Results are normalized on HPRT and expressed in fold change (FC) between Doxycyline treated (Dox+) and non-treated conditions (Dox−). (B) Percentage of CD11b positive cells in shCtrl and sh #1 upon or not (Dox−) 6-days-induction with 2 μg/mL doxycycline (Dox+), without ATRA (wo ATRA) or with 72 hours of ATRA treatment (0.5 μM or 1 μM). […]
(§2) To investigate the effect of low H1d expression on AML, we performed H1d knockdown (KD) in OC1-AML3 cells, an AML cell line expressing a NPM1 mutated allele.^26 Efficiency and specificity of our KD were assessed by testing the different mRNA H1 subtypes expression by q-PCR (FIG. 2A) and by measuring H1d protein level after doxycycline induction (data not shown). Consequences of H1d KD on differentiation were evaluated by measuring CD11b and CD11c expression in OCI-AML3 after doxycycline induction. […] As OCI-AML3 can differentiate in vitro in the presence of ATRA, albeit at low efficiency,^27,28 we further analyzed the effect of H1d KD in combination with ATRA treatment. […]
On the technique in general: Real-time PCR tracks product formation cycle by cycle.

The test system of experiment [2] is OCI-AML3 cells. Description: Morphological analysis (May-Grunwald Giemsa), cells with cytoplasmic granules. Type of experiment: cell-based. As to conditions: ATRA 0.5 μM, 96 h. The protocol: as §1
Cytospins were prepared by centrifugation in […] PBS at a speed of 500 rpm for 5 min using Superfrost slides. […] 100 cells were counted in duplicate for each condition and examined for cellular morphology using an structured light ApoTome™ microscope (Zeiss, Munich, Germany) equipped with a 63× 1.4 plan ApoChromat objective and an Axiocam™ MRc5 camera.
To investigate the effect of low H1d expression on AML, we performed H1d knockdown (KD) in OC1-AML3 cells, an AML cell line expressing a NPM1 mutated allele.^26 Efficiency and specificity of our KD were assessed by testing the different mRNA H1 subtypes expression by q-PCR (FIG. 2A) and by measuring H1d protein level after doxycycline induction (data not shown). […]

In experiment [3] the test system is OCI-AML3 cells. Description: CD11b/CD11c differentiation markers by flow cytometry in OCI-AML3 with or without H1d knockdown and ATRA. It is filed as cell-based. The following applies: for proportion of the double positive CD11b/CD11c populations / CD11b expression (percentage of CD11b positive cells): ATRA 0.5 μM; for proportion of the double positive CD11b/CD11c populations: 72 h. On the procedure: (A) OCI-AML cells were stably infected by a doxycycline inducible shCtrl or shH1d. Expression of the main histone H1 genes (HIST1H1B, HIST1H1C, HIST1H1D, HIST1H1E, HIST1H1F0 and HIST1HIFx) were analyzed by qPCR in shCtrl and sh #1 without (Dox−) or with 6-days-induction of doxycycline (Dox+). Data represent three independent Dox inductions. Results are normalized on HPRT and expressed in fold change (FC) between Doxycyline treated (Dox+) and non-treated conditions (Dox−). (B) Percentage of CD11b positive cells in shCtrl and sh #1 upon or not (Dox−) 6-days-induction with 2 μg/mL doxycycline (Dox+), without ATRA (wo ATRA) or with 72 hours of ATRA treatment (0.5 μM or 1 μM). (C) Percentage of CD11b-CD11c cells upon 72 h of ATRA-treatment (0.5 μM) in shCtrl and sh #1 conditions. Data represent three independent experiments. Statistical significance was estimated using Mann Whitney test * p<0.05; **p<0.005. (D) Cytological analysis of shCtrl and sh #1 clones upon or not (Dox−) 6-days-induction with doxycycline (Dox+) and after 96 h of ATRA treatment (0.5 μM). (D) May-Grunwald Giemsa coloration of shCtrl and sh #1 clones after 6-days-induction with doxycycline and 96 h hours of ATRA treatment. Black arrows are pointing cytoplasmic azurophilic granules. (E) Expression analysis of two genes associated with ATRA-induced differentiation: CYBB (Cytochrome B-245 Beta Chain) and ITGAM (Integrin Subunit Alpha M) in untreated OCI-AML3 and in ATRA-treated (1 μM) sh #1 without or with doxycycline induction. Data represent three independent experiments. Gene expression was normalized to two housekeeping genes (PGK1 and PPIA). Statistical significance was estimated using T-test (* one-tailed p value <0.05).
The OCI-AML3 cells were grown in MEMα medium supplemented with 20% fetal bovine serum, 100 U/mL penicillin and 100 U/mL streptomycin at 37° C. in humidified atmosphere containing 5% CO2. H1d knockdown was achieved using doxycylin-induced Dharmacon™SMARTvector™ short hairpin RNA (n° V3SH7669-229784413). A non-silencing sh RNA (piSMART VSC10730) was used as a control (shCtrl). Cells containing the SMARTvector™ were selected on puromycin (2 μg/mL) during one day and sorted using ARIAIII cytometer before clonal selection. Three independent cellular clones (sh #1; sh #2; sh #3) were selected. KD of H1d protein was obtained by the addition on doxycycline (2 μg/mL) during 5-7 days. All-trans-retinoic acid (ATRA; Sigma) was resuspended at 10 mM in DMSO and stored at −20° C. Intermediate dilutions were made in culture medium before adding to the cells.
Flow cytometry analyses were performed using a BD-LSRII cytometer and analyzed using BD-DIVA Version 6.1.2 software (BD Biosciences). […]
as §2
On the technique in general: A flow cytometer gives signals particle by particle.

For experiment [4], the system named is NPM1mut AML patient-derived xenograft (H3K27me3HIST1high / H3K27me3HIST1low). Description: Patient-derived xenograft (PDX) treated with Ara-C. Type of experiment: in vivo, mice. The following applies: for Percentage of leukemic initiating cells (LIC) in BM: 2-round ARAC treated versus untreated. On the procedure: FIG. 4: Detection of leukemic initiating cells after ARAC treatment. (A) H3K27me3HIST1^high and H3K27me3HIST1^low AML secondary transplants were injected in immunocompromised mice (NSG). At disease detection, mice were treated with a first round of ARAC (T1). Blasts in the peripheral blood were followed and a second ARAC treatment (T2) was administrated. (B) Frequency of leukemic initiating cells were analyzed in the BM of the transplanted mice. Percentages are calculated in relation to CD45 and CD33 positive cells detected.
We determined the response to chemotherapy according to H3K27me3 status. This was tested in vivo using patient-derived xenograft (PDX) treated with chemotherapeutic drugs (Ara-C). We used secondary transplantation from 1 H3K27me3HIST1low and 2 H3K27me3HIST1high NPM1mut AML patients. Experimental groups of 6 mice/groups of H3K27me3 HIST1high versus H3K27me3 HIST1low were studied. Mice were treated for one week and progression of leukemia was evaluated by counting hCD45+ cells in blood and after euthanasia in bone marrow. Mouse maintenance and experimental procedures were performed in accordance with protocols approved and compliance with policies approved by the local Committee for Animal Experimentation of Marseille (CAE of Provence number 14), France (2-091009).
We performed a second round of ARAC treatment and analyzed the presence of leukemic cells 4-day post treatment. Numbers of blasts were variable depending on the patient with an accumulation in the BM of leukemic Blast in one of the PDX. […] Thus we analyzed the % of LIC in the 2-round ARAC treated mice in comparison to untreated ones (FIG. 4A).

From US20220340975A1, “METHOD OF TREATMENT AND PRONOSTIC OF ACUTE MYELOID LEUKEMIA” (INSERM (Institute National de la Santé et de la Recherche …, priority 2019, published 2022) come the findings set out here.

For the compound `CC1=C(/C=C/C(C)=C/C=C/C(C)=C/C(=O)O)C(C)(C)CCC1` [ATRA, all-trans retinoic acid], in the experiment with OCI-AML3 cells [1], the “CYBB mRNA expression level” value was “increased the amplitude of ATRA-induced upregulation”. In addition, the “ITGAM mRNA expression level” value in the experiment with OCI-AML3 cells [1] is given as “increased the amplitude of ATRA-induced upregulation”. Further, the “proportion of cells with more than two cytoplasmic granules” value was found to be 31.5±3.7 in the experiment on OCI-AML3 cells [2] (H1d KD) and 9.7% in the experiment on OCI-AML3 cells [2] (control (no H1d KD)). The “proportion of the double positive CD11b/CD11c populations” value in the experiment on OCI-AML3 cells [3] (H1d KD cells) is reported as 42.5%; in the experiment with OCI-AML3 cells [3] (control (no H1d KD)), 29.8%. The “CD11b expression (percentage of CD11b positive cells)” value is 41% in the experiment with OCI-AML3 cells [3] (72 hours, with H1d KD (doxycycline-induced)) and 22.6% in the experiment with OCI-AML3 cells [3] (72 hours, without H1d KD (control)). The CD11b expression entry in the experiment on OCI-AML3 cells [3] (ATRA 1 μM, 72 hours, with H1d KD versus control) is reported as “significant increase”.

Regarding `Nc1ccn([C@@H]2O[C@H](CO)[C@@H](O)[C@@H]2O)c(=O)n1` [ARAC, cytarabine], the “Percentage of leukemic initiating cells (LIC) in BM” value in experiment [4] (H3K27me3HIST1high PDX) is “identical before and after treatment”; in experiment [4] (H3K27me3HIST1low PDX), “increased”. Further, in experiment [4] (first round, one week treatment, all PDX independently of H3K27me3HIST1 status), the “Response to chemotherapy (progression of leukemia, hCD45+ cells)” value is “Response to chemotherapy was obtained in all mice”.
